These results are taken from US20090111868A1 (priority 2004, published 2009).

In one data set the test system is rat stroke models. The conditions noted are these: cited from earlier work.
The target of data set [1] is maxi-K potassium channels (Homo sapiens, UniProt Q12791). The conditions noted are these: cited from earlier work.
In a further data set the target is maxi-K channels (Homo sapiens, UniProt Q12791). The conditions noted are these: applied to the cytoplasmic side; cited from earlier work.
Chain of maxi-K channels (Q12791 whole entry): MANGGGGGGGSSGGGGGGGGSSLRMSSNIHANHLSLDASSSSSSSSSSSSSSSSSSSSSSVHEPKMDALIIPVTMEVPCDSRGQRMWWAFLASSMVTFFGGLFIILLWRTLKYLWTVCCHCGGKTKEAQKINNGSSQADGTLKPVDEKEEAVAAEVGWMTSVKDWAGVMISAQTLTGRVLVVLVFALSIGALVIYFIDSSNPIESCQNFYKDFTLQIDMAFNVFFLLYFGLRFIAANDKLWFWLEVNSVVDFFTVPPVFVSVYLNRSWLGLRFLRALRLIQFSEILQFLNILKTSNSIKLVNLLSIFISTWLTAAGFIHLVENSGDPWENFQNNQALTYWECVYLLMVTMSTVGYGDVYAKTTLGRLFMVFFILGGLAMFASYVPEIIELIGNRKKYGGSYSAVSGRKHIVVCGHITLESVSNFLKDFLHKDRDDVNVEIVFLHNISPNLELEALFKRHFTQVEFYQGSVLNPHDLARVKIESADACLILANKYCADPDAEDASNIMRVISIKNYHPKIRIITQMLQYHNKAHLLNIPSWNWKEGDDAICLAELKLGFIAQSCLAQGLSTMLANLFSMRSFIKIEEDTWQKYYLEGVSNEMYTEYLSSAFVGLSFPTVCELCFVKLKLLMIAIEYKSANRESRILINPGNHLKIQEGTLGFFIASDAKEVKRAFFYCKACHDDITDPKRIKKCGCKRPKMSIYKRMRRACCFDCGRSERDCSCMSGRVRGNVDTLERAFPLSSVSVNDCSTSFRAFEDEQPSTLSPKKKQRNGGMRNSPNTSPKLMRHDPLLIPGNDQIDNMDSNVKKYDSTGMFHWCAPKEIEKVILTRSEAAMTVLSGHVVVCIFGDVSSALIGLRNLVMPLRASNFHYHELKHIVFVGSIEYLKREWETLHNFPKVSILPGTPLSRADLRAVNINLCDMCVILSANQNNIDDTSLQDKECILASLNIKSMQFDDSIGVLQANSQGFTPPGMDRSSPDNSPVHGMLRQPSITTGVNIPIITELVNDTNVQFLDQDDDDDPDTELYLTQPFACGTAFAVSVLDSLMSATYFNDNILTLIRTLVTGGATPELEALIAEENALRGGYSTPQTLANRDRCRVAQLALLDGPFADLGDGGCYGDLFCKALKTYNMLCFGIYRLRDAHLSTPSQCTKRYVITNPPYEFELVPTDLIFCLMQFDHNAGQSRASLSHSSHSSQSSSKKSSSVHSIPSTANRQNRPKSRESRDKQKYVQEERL
The conditions of data set [2]: not told; cited from earlier work.
The target in data set [3] is T1, BKCa channel (Sus scrofa, UniProt O18866).
T1 construct: host or cells: porcine coronary artery cells (endogenous)
T1 sequence (O18866 whole entry): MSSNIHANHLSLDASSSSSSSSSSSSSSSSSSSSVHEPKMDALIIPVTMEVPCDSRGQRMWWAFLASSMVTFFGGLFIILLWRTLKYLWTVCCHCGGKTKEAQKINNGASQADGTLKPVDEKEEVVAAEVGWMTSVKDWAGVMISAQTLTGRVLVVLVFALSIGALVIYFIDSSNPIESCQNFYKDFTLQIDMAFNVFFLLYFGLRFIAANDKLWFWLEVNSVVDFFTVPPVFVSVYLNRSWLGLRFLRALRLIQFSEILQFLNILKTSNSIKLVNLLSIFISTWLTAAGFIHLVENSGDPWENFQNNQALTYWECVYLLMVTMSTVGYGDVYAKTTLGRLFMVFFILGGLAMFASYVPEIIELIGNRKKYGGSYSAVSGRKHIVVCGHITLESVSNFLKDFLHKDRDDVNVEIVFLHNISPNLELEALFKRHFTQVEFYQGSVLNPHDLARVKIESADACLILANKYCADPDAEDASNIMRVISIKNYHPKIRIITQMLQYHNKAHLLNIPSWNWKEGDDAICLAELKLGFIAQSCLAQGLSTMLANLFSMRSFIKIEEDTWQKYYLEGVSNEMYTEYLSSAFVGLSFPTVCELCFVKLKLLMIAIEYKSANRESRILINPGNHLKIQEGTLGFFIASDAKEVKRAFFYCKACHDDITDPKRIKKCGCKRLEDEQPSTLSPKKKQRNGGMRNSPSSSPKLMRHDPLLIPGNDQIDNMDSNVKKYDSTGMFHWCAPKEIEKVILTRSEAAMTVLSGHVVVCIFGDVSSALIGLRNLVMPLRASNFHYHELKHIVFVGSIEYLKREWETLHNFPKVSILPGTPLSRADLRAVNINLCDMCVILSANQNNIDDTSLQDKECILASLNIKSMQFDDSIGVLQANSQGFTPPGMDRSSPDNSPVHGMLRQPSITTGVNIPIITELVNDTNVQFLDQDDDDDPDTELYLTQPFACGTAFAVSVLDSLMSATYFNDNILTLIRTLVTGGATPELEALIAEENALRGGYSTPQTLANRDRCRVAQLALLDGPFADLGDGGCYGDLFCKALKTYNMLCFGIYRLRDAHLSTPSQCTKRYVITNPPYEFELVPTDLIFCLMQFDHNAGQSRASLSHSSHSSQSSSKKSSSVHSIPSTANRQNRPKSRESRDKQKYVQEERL
The conditions noted are these: cited from earlier work.

For the next data set, the target named is T2, BKCa channel (mSlo) (Mus musculus, UniProt Q08460).
T2 construct: expressed in transfected cells
T2 sequence (Q08460 whole entry): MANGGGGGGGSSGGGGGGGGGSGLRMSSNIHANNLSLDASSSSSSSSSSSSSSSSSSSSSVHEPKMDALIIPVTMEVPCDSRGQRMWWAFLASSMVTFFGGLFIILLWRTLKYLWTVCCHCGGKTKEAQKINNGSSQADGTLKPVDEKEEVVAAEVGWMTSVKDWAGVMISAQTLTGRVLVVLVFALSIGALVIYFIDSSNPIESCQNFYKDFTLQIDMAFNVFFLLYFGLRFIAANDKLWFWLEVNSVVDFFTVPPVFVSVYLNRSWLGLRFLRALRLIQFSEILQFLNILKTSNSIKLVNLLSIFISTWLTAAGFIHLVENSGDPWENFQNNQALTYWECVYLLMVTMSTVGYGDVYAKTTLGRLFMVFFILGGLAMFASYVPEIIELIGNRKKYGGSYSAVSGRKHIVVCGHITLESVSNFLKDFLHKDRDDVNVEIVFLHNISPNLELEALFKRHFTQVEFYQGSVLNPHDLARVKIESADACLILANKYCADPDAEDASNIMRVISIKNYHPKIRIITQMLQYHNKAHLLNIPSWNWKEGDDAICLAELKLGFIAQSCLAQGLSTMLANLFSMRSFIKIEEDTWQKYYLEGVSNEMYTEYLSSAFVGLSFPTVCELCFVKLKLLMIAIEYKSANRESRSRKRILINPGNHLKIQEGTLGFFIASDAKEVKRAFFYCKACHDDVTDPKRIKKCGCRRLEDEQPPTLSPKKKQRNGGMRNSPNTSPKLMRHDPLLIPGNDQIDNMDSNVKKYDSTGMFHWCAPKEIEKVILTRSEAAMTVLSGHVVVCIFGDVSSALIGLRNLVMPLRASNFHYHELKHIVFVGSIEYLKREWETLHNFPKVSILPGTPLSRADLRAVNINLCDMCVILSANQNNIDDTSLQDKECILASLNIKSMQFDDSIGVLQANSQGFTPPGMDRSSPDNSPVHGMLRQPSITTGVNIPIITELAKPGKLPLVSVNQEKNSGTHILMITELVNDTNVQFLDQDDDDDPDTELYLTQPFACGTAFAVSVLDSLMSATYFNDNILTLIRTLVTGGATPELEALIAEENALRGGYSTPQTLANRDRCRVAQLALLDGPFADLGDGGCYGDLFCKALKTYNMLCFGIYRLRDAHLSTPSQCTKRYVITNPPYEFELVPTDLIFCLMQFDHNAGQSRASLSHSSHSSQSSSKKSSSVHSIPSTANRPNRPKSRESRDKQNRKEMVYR
Description: Whole cell patch clamp of BKCa channel in stably transfected mSlo HEK293 cells. It counts as cell-based, murine. Here is the method: (A-B) Representative current traces from whole cell patch with 5 mM EGTA in patch pipette. […] Voltage steps are shown at the right of each tracing; note different maximum voltage steps +200 mV (upper) vs. +120 mV (lower). […] Tail currents are in opposite direction due to final voltage step (+60 upper, −60 mV left). (C) G-V curves were constructed for indicated conditions utilizing tail analysis (Xia, et al., Multiple regulatory sites in large-conductance calcium-activated potassium channels. Nature, 2002. 418(6900):880-4). Solid lines were fitted with Boltzmann function (Origin 7.5). […] Representative of>30 similar experiments with rat and murine (pictured) s1o. (D-E) Stable mslo HEK293 cells were studied in whole cell configuration with pipette solution containing 5 mM EGTA (˜0 free Ca^2+).
(§1) Current was monitored with ramp protocol; holding potential −60 mV, with ramp from −80 mV to +150 mV over 500 ms. Extracellular application of NS-1619 (10 μM) increased current as previously described (Olesen, et al., Selective activation of Ca(2+)-dependent K+channels by novel benzimidazolone. Eur. J. Pharmacol., 1994. 251(1):53-9). […] Analysis performed using tail analysis with normalization as previously described (Xia, et al., Multiple regulatory sites in large-conductance calcium-activated potassium channels. Nature, 2002. 418(6900):880-4). (B) HEK cells co-expressing α and β1 subunits were studied in whole cell configuration with 5 mM EGTA (intra-pipette). […] (C) Human VSMC were studied in outside-out configuration, utilizing single channel recordings, recorded at +60 mV. […] Identification of the BKCa channel was determined by conductance and inhibition by iberiotoxin and TEA. […] Murine femoral arterial rings from were isolated and placed in a wire myograph. […] Figure representative of 4 similar experiments. Error bars are SEM; * p<0.001.
For orientation: In patch-clamp work, channel activity is measured electrically.

The test system of a further data set is Ca^2+ channel. As to conditions: cited from earlier work.
A further data set concerns Cl^− channel. As to conditions: cited from earlier work.
Data set [4] has as its system porcine coronary myocytes. As to conditions: 30 μM; through ryanodine receptor sensitive storage sites; cited from earlier work.
The test system of the next data set is hypertensive rat model. The conditions noted are these: hypertensive rat model compared to controls; cited from earlier work.
For data set [5], the target named is BKCa channel (Mus musculus, UniProt Q08460). The data set can be described thus: Single channel recordings of BKCa channel, outside-out and inside-out patches (cell-free configuration). Format: biochemical. As to conditions: for inhibition of rottlerin channel activation: not shown. Here is the method: Amplitude histograms are shown on the right. […] Ca^2+ was maintained at 0 (virtual; actual<20 nM) through dialysis using patch pipette. Since cellular compartments are excluded from patch and outside-out patch perfused locally with 0 Ca^2+, activation is Ca^2+-independent. […] Amplitude histograms are shown on the right.
Chain of BKCa channel (Mus musculus, UniProt Q08460) (Q08460 whole entry, the tested form may be a part): as the sequence (Q08460 whole entry) above

For data set [6], the system named is Murine femoral arterial rings. The data set can be described thus: Phenylephrine induced constriction of femoral arterial rings, wire myograph. It counts as cell-based. The procedure: as §1
In data set [7] the target is T3, BKCa channel mSlo and β1 subunit (Mus musculus, UniProt Q08460).
T3 construct: expressed in transfected cells; host or cells: HEK293
T3 sequence (Q08460 whole entry): as above
T3 sequence (Q16558 whole entry partner): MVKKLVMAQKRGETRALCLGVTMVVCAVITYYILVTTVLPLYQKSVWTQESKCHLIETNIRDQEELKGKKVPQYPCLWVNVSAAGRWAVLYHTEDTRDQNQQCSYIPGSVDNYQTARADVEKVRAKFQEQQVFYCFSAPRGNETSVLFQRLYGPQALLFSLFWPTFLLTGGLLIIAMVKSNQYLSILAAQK
The data set can be described thus: Whole cell recording in HEK cells co-expressing α and β1 subunits. It counts as cell-based, murine. The procedure: as §1

Data set [8] has as its target T4, PKCδ (Homo sapiens, UniProt Q05655). As to conditions: read-out: IC50 for PKCδ; in vitro; cited from earlier work.
A further data set has as its system other PKC isozymes. As to conditions: in vitro; cited from earlier work.
The target of the next data set is PKA (Homo sapiens, UniProt P17612). The conditions noted are these: read-out: IC50 for PKA; in vitro; cited from earlier work.
The target of a further data set is casein kinase II (Homo sapiens, UniProt P68400). As to conditions: read-out: IC50 for casein kinase II; in vitro; cited from earlier work.
Data set [9] deals with T4, PKCδ. The conditions noted are these: more recent data; cited from earlier work.
For data set [10], the system named is mitochondria in intact cells. As to conditions: cited from earlier work.
A further data set has as its target PKCα (Homo sapiens, UniProt P17252). As to conditions: rottlerin 20 μM; 0.1 mM (or 0.01 mM) ATP; phosphatidylserine; histone H1 or myelin basic protein substrate; cited from earlier work.
The target of data set [11] is T4, PKCδ. The conditions noted are these: rottlerin 20 μM; 0.1 mM (or 0.01 mM) ATP; phosphatidylserine; histone H1 or myelin basic protein substrate; cited from earlier work.
In another data set the test system is 3T3-L1 adipocytes. As to conditions: read-out: IC50, inhibition of insulin-induced glucose uptake; cited from earlier work.
Data set [12] has as its target T5, glutamate-aspartate transporter (GLAST) (Homo sapiens, UniProt P43003).
T5 construct: host or cells: astrocytes (from the cited title only)
As to conditions: cited from earlier work.

In another data set the test system is rats. As to conditions: purified rottlerin 10-20 mg/kg/day × 6 days; cited from earlier work.
The subject of a further data set is guinea pigs. The conditions noted are these: purified rottlerin 10-20 mg/kg/day × 6 days; cited from earlier work.
Data set [13] deals with canine subarachnoid hemorrhage model. The conditions noted are these: rottlerin 5 μM injected into the cistema magna; cited from earlier work.
The target in data set [14] is T6, BKCa channels (Homo sapiens, UniProt Q12791). Description: Single channel recordings (outside-out) in human VSMC. The conditions noted are these: recorded at +60 mV. Also noted: endogenous in cells; host or cells: human vascular smooth muscle cells (VSMC) grown in vitro. It counts as cell-based. The procedure:
as §1

The target of data set [15] is T6, BKCa channels. As to conditions: cited from earlier work.
For the next data set, the system named is Ca^2+ sparks (RyR). The conditions noted are these: cited from earlier work.

Entries after “also recorded” stand apart in the source; their conditions may differ. Where two headings read alike, the source gives them in different places.

T4 sequence (Q05655 whole entry): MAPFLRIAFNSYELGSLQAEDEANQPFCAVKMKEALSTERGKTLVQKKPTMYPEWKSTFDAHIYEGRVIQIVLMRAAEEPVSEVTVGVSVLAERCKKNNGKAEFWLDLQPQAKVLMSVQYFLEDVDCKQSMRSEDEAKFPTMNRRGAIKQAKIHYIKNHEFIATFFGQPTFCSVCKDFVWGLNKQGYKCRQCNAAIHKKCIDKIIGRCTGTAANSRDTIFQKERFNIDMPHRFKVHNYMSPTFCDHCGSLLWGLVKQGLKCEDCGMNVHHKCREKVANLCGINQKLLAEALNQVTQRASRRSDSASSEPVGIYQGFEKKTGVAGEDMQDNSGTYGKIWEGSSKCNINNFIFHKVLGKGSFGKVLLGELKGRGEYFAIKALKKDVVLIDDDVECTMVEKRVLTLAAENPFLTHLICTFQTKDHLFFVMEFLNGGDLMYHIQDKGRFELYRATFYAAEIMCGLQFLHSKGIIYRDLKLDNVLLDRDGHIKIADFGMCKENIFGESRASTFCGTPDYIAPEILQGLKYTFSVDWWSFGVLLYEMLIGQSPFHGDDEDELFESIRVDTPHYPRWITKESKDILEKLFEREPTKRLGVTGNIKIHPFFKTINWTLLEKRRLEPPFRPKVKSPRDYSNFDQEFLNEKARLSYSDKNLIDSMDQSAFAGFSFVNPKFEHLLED
T6 sequence (Q12791 whole entry): as the sequence (Q12791 whole entry) above
Chain of maxi-K potassium channels (Q12791 whole entry): as above

As for `COc1ccc(Cl)cc1[C@]1(F)C(=O)Nc2cc(C(F)(F)F)ccc21` [BMS-204352], in the data set with rat stroke models, the brain infarct size result is on record as “reduction in brain infarct size”. Further, the effect on current result was “almost no effect” in data set [1] (50 nM intracellular Ca2+) and “progressively greater increases in current” in data set [1] (higher intracellular Ca2+ concentrations).
`C=C[C@]1(C)C=C2CC[C@@]3(O)C(C)(C)CC[C@H](O)[C@]3(C)C2CC1` (stereo partly shown) [Maxikdiol]: at maxi-K channels, the “concentration with significant effect on channel” value was 3 to 10 µM and the “threshold concentration for channel activation” value was 1 µM. Also, in [2], the membrane permeability result is on record as “limited”.
With `O=C(Nc1cccc(C(F)(F)F)c1)Nc1cc(Cl)ccc1O` [NS1608], at BKCa channel [3] (50 μM), the “effect at higher concentrations (bell shaped)” value is “inhibitory effect”. At BKCa channel [3] (porcine coronary artery cells), the “concentration of maximum BKCa channel activation” value is 5 to 10 µM and the “minimum effective concentration, BKCa channel activation” value is 0.5 µM.
Take `O=c1[nH]c2cc(C(F)(F)F)ccc2n1-c1cc(C(F)(F)F)ccc1O` [NS-1619]: the “peak K+ current” value on BKCa channel (mSlo) was “activated”. For the same compound, the “Ca2+ channel” value with Ca^2+ channel is “inhibits”. Also, the Cl- channel result with Cl^− channel is “inhibits”. In [4], the “intracellular Ca2+ concentration” value is reported as “increase intracellular Ca^2+ concentration”. The “efficacy in mediating vascular relaxation” value in the data set with hypertensive rat model is “diminished”.
On to `CC[N+](CC)(CC)CC` [TEA, reference compound], for which the “inhibition of rottlerin induced BKCa activation” value against BKCa channel (mSlo) (TEA 5 mM) is reported as “reversibly inhibited”. Moreover, at BKCa channel [5], the “inhibition of rottlerin channel activation” value is reported as “can be inhibited”. Moreover, the “inhibition of the rottlerin mediated effect on contraction” value in data set [6] (TEA) is on record as “inhibited”.
Take `CC(=O)c1c(O)c(C)c(O)c(Cc2c(O)c3c(c(C(=O)/C=C/c4ccccc4)c2O)OC(C)(C)C=C3)c1O` [rottlerin, 5,7-dihydroxy-2,2-dimethyl-6-(2,4,6-trihydroxy-3-methyl-5-acetylbenzyl)-8-cinnamoyl-1,2-chromene]: the “BKCa channel activity on extracellular exposure” value at BKCa channel (mSlo) (0.5 μM via local perfusion after 25 min intracellular dialysis) is listed as “significantly increased”. Besides, the “BKCa channel activity/current on intracellular dialysis” value at BKCa channel (mSlo) (20 μM rottlerin in patch pipette, 5 mM EGTA, over 25 min) is “minimal effect; also recorded: only a relatively small effect”. The “tail currents (slowing of deactivation)” value at BKCa channel (mSlo) (after exposure to rottlerin (FIG. 4: 0.5 μM extracellular, 5 mM EGTA in pipette)) is on record as “significantly prolonged; also recorded: markedly prolonged”. At BKCa channel (mSlo) (extracellular, pipette 5 mM EGTA (~0 free Ca2+)), the “BKCa channel activation on local perfusion” value is “activated channel”. In addition, at BKCa channel (mSlo) (rottlerin 0.5 μM added after NS-1619 (10 μM), 0 Ca2+), the “current after NS-1619 administration” value is on record as “incrementally increased current”. The BKCa channel activity result on BKCa channel (mSlo) (rottlerin ≦100 nM, non-phosphorylated conditions, non-Ca2+ dependent, reversible) is listed as “dramatically increased”. Further, the “single channel activity, outside-out patch” value at BKCa channel [5] (rottlerin 0.5 μM local perfusion to extracellular side, 0 Ca2+ (actual <20 nM)) was “activation of BKCa”. Besides, the “single channel activity, inside-out patch” value on BKCa channel [5] (rottlerin 0.5 μM local perfusion, 0 Ca2+) is “activation of BKCa”. For the same compound, on BKCa channel [5] (rottlerin 0.5 μM, amplitude histograms), the channel conductance entry is on record as “does not significantly change”. The channel activity entry in data set [7] (HEK293 cells expressing both mSlo and β1 subunit) was “activated the channel”. The I-V curve result in data set [7] (rottlerin 0.5 μM, whole cell, 5 mM EGTA intra-pipette) is on record as “significantly shifted the I-V curve to the left”. Moreover, the “effect on phenylephrine mediated contraction” value in [6] (rottlerin 1 μM) is reported as “no significant effect”. In data set [6] (rottlerin 4 μM), the “reduction of phenylephrine mediated contraction” value is listed as more than 50%. For the same compound, in [6] (rottlerin (0.5 μM), p<0.001, representative of 4 experiments), the “PE induced constriction of the vessel” value is listed as “significantly inhibited”. For the same compound, the IC50 (commonly the point on the concentration scale where inhibition reaches its midpoint) on PKCδ [8] is 3 to 6 µM; with other PKC isozymes, 30 to 100 µM; on PKA, 30 to 100 µM; at casein kinase II it was 30 to 100 µM; in the data set on 3T3-L1 adipocytes, 10 µM. In addition, the “blocking PKCδ activity in vitro” value at PKCδ [9] is recorded as “ineffective”. Further, the uncoupling of mitochondria entry in data set [10] (10 μM) is recorded as “can uncouple mitochondria”. The ATP levels entry in data set [10] (PKC independent) is “reduce ATP levels”. Further, on PKCα, the “effect on PKCα activity” value is “virtually no effect”. Further, the “effect on PKCδ activity” value on PKCδ [11] is given as “virtually no effect”. Further, the “capacity of GLAST glutamate transporter” value in [12] is listed as “decrease the capacity”. For the same compound, the fertility rate entry with rats and in the data set with guinea pigs was “reduce the fertility rate” each time. Further, in [13], the cerebral vasospasm result was “inhibited the initial phase of cerebral vasospasm”. For the same compound, in [13], the toxic effects entry was “No toxic effects”. For the same compound, the Po entry at BKCa channels [14] (rottlerin (0.5 μM) by local perfusion) is recorded as “significantly increased”. Besides, on BKCa channels [14] (rottlerin (0.5 βM) by local perfusion), the open dwell time result is “significantly increased”.
Take `CC1(C)C[C@@H](O)[C@]2(C)CC[C@]3(C)C(=CC[C@@H]4[C@@]5(C)CC[C@H](O[C@@H]6O[C@H](C(=O)O)[C@@H](O)[C@H](O)[C@H]6O[C@@H]6O[C@H](CO)[C@H](O)[C@H](O)[C@H]6O)[C@](C)(CO)[C@@H]5CC[C@]43C)[C@@H]2C1` [soyasaponin III]: at BKCa channels [15], the BKCa channel activation result is “activate BKCa channels”.
`C[C@@H]1O[C@@H](O[C@H]2[C@H](O[C@H]3[C@H](O[C@H]4CC[C@@]5(C)[C@@H](CC[C@]6(C)[C@@H]5CC=C5[C@@H]7CC(C)(C)C[C@@H](O)[C@]7(C)CC[C@]56C)[C@@]4(C)CO)O[C@H](C(=O)O)[C@@H](O)[C@@H]3O)O[C@H](CO)[C@H](O)[C@@H]2O)[C@H](O)[C@H](O)[C@H]1O` [soyasaponin I]: the BKCa channel activation result on BKCa channels [15] is given as “activate BKCa channels”.
Take Ryanodine: the “reduction of dilation to forskolin” value in the data set with Ca^2+ sparks (RyR) is given as 80%.
Consider “iberiotoxin: inhibitor used to identify the BKCa channel (QFTDVDCSVSKECWSVCKDLFGVDRGKCMGKKCRCYQ; UniProt P24663 1-37, looked up) [reference compound]”, for which, in the data set with BKCa channel [5], the “inhibition of rottlerin channel activation” value was “can be inhibited”.
